Laboratory results taken from article PMC8583760, “Pharmacokinetic interaction between rhynchopylline and pellodendrine via CYP450 enzymes and P-gp” (Pharmaceutical Biology, 2021).

Legend:
CYP2C9 = test system: T1, CYP2C9; experiment: CYP probe substrate depletion in rat liver microsomes, HPLC; format: biochemical; details: typical CYP2C9 substrate (not named); 0-100 μM inhibitor
T1 construct: gene Cyp2c11; native enzyme activity in rat liver microsomes

CYP1A2 = biological target: T2, CYP1A2 (Rattus norvegicus, UniProt P04799); experiment: as above; format: biochemical; details: typical CYP1A2 substrate (not named); 0-100 μM inhibitor
T2 construct: native full-length enzyme in rat liver microsomes
T2 sequence (P04799 2-513): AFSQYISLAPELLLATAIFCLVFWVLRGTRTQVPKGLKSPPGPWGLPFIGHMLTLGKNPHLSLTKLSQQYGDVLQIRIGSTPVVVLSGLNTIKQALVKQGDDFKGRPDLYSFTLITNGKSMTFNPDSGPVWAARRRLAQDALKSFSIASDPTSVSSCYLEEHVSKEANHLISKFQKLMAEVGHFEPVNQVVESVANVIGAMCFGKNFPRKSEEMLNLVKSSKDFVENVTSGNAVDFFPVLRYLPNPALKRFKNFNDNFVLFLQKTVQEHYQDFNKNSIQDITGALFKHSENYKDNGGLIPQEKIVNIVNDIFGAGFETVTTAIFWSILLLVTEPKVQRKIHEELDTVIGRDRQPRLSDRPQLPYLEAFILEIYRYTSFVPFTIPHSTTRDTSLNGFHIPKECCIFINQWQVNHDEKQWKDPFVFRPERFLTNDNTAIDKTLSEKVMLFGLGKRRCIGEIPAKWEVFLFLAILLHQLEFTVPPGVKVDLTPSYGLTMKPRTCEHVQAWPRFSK

`COc1cc2c(cc1O)C[C@H]1c3cc(O)c(OC)cc3CC[N@@+]1(C)C2` [pellodendrine] gave an IC50 (CYP2C9) of 16.2 µM and an IC50 (CYP1A2) of 23 µM.
